“Also recorded” adds a separate entry of the source.
Tests used:
[1] = target: SARS-CoV-2 3CLpro (Severe acute respiratory syndrome coronavirus 2, UniProt P0DTD1); experiment: SARS-CoV-2 3CLpro; format: biochemical
[2] = test system: SARS-CoV-2^WK−521; experiment: Immunocytochemistry assay of infected VeroE6 cells; format: cell-based; conditions: for infected cells by immunocytochemistry: VeroE6 cells exposed to SARS-CoV-2^WK−521; for infectivity and cytopathic effect of SARS-CoV-2: VeroE6^TMPRSS2 cells
[3] = test system: VeroE6 cells
[4] = test system: SARS-CoV-2; format: cell-based; conditions: VeroE6 cells

CC(C)(C)[C@H](NC(=O)C(F)(F)F)C(=O)N1C[C@H]2[C@@H]([C@H]1C(=O)N[C@H](C#N)C[C@@H]1CCCNC1=O)C2(C)C [Compound 5e, (1R,2S,5S)-N-((S)-1-Cyano-2-((S)-2-oxopiperidin-3-yl)ethyl)-3-((S)-3,3-dimethyl-2-(2,2,2-trifluoroacetamido)butanoyl)-6,6-dimethyl-3-azabicyclo[3.1.0]hexane-2-carboxamide]
improvement of Mpro inhibitory activity over nirmatrelvir 1 ([1]; ratio of Ki values): more than 6 fold
infected cells by immunocytochemistry ([2]; 1 μM compound): some infected cells were observed
infected cells by immunocytochemistry ([2]; 10 μM compound): hardly any infected cells
infected cells by immunocytochemistry ([2]; 100 μM compound): hardly any infected cells
infectivity and cytopathic effect of SARS-CoV-2 [2]: significantly reduced; also recorded: potently blocked
toxicity [3]: without significant toxicity

CC(C)(C)[C@H](NC(=O)C(Cl)(Cl)Cl)C(=O)N1C[C@H]2[C@@H]([C@H]1C(=O)N[C@H](C#N)C[C@@H]1CCCNC1=O)C2(C)C [Compound 5f, (1R,2S,5S)-N-((S)-1-Cyano-2-((S)-2-oxopiperidin-3-yl)ethyl)-3-((S)-3,3-dimethyl-2-(2,2,2-trichloroacetamido)butanoyl)-6,6-dimethyl-3-azabicyclo[3.1.0]hexane-2-carboxamide]
improvement in antiviral activity over nirmatrelvir 1 ([4]; ratio of EC50 values): over 7 fold

CC(C)(C)[C@H](NC(=O)C(F)(F)F)C(=O)N1C[C@H]2[C@@H]([C@H]1C(=O)N(C(=O)C(F)(F)F)[C@H](C#N)C[C@@H]1CCNC1=O)C2(C)C [Compound 5h, (1R,2S,5S)-N-((S)-1-Cyano-2-((S)-2-oxopyrrolidin-3-yl)ethyl)-3-((S)-3,3-dimethyl-2-(2,2,2-trifluoroacetamido)butanoyl)-6,6-dimethyl-N-(2,2,2-trifluoroacetyl)-3-azabicyclo[3.1.0] hexane-2-carboxamide]
Mpro inhibitory activity (in words) [1]: no appreciable
antiviral activity (in words) [4]: no appreciable

CC(C)(C)[C@H](NC(=O)OCc1cccnc1)C(=O)N1C[C@H]2[C@@H]([C@H]1C(=O)N[C@H](C#N)C[C@@H]1CCNC1=O)C2(C)C [Compound 5k, Pyridin-3-ylmethyl((2S)-1-((1R,2S,5S)-2-((1-cyano-2-((S)-2-oxopyrrolidin-3-yl)ethyl)carbamoyl)-6,6-dimethyl-3-azabicyclo[3.1.0]hexan-3-yl)-3,3-dimethyl-1-oxobutan-2-yl)carbamate]
improvement of antiviral activity compared to benzyl carbamate derivative 5i [4]: > 8 fold

CC(C)(C)NC(=O)N[C@H](C(=O)N1C[C@H]2[C@@H]([C@H]1C(=O)N[C@H](C#N)C[C@@H]1CCNC1=O)C2(C)C)C(C)(C)C [Compound 5m, (1R,2S,5S)-3-((S)-2-(3-(Tert-butyl)ureido)-3,3-dimethylbutanoyl)-N-((S)-1-cyano-2-((S)-2-oxopyrrolidin-3-yl)ethyl)-6,6-dimethyl-3-azabicyclo[3.1.0]hexane-2-carboxamide]
loss of antiviral activity compared to Boc-derivative 5g [4]: 3 fold

CC(C)(C)[C@H](NC(=O)C(F)(F)F)C(=O)N1C[C@H]2[C@@H]([C@H]1C(=O)N[C@H](C#N)C[C@@H]1CCNC1=O)C2(C)C [Nirmatrelvir, (1R,2S,5S)-N-((S)-1-Cyano-2-((S)-2-oxopyrrolidin-3-yl)ethyl)-3-((S)-3,3-dimethyl-2-(2,2,2-trifluoroacetamido)butanoyl)-6,6-dimethyl-3-azabicyclo[3.1.0]hexane-2-carboxamide, reference compound]
infected cells by immunocytochemistry ([2]; 1 μM compound): complete viral breakthrough
infected cells by immunocytochemistry ([2]; 10 μM compound): hardly any infected cells
infected cells by immunocytochemistry ([2]; 100 μM compound): hardly any infected cells
infectivity and cytopathic effect of SARS-CoV-2 [2]: potently blocked

— PMC10964431 (European journal of medicinal chemistry, 2024)
